In publication PMC5147771, “High-Resolution Genetics Identifies the Lipid Transfer Protein Sec14p as Target for Antifungal Ergolines” (PLoS Genetics, 2016):
pIC50: −log10 of the molar value. Read-outs that look alike come from different tables or passages of the source.

Assays:
[1] = system: S. cerevisiae deletion strains; assay: Single strain growth inhibition of deletion strains (turbidity OD600); type: cell-based; details: Saccharomyces cerevisiae, 24 h
S. cerevisiae BY4741 = assay: Phosphatidylinositol (PI) and phosphatidylcholine (PC) competition growth assay; type: cell-based; details: medium with 200 μM PI or 200 μM PC
Text: To test this hypothesis, the S. cerevisisae x-ray structure of Sec14p was used to dock the NGx04 ligand into the lipid-binding cavity (Fig 3B). In the resulting docking model, the ester moiety of the ligand formed an H-bond with Y111 while the ergoline amine formed an H-bond with T175. The ergoline moiety also made van der Waals interactions with the residues Y122, Y151, S173, M177 and F212. The calculated docking model was in agreement with the experimental data from the mutagenesis study, as three of the four identified resistance conferring mutations were directly involved in ligand interactions (Y111, Y151 and S173) and the identified V154 residue, although not directly involved in ligand interactions, was only 4.5 Å away from NGx04. The model outlines that a larger residue at this position like Isoleucine would be deleterious for ligand binding. As our docking experiment was biased towards the lipid-binding cavity we aimed at further supporting evidence for NGx04 binding in this protein pocket. To do so we tested if NGx04 would compete for phospholipid-binding in the Sec14p cavity. […]
S. cerevisiae BY4741 (Open Biosystems) was grown in YPD medium in the absence or presence of additional phosphatidylinositol or phosphatidylcholine (200 μM each, Sigma-Aldrich 79401 or P3556, respectively). OD600 values of exponentially growing yeast cultures were recorded with a robotic system. […]

[2] = system: wild type yeast carrying plasmid SEC14 variants; assay: Growth inhibition titration of yeast re-transformed with plasmids coding for SEC14 variants; details: Saccharomyces cerevisiae, 18 h
Experimental: A plasmid containing the wild type copy of SEC14 was used as control to exclude resistance due to SEC14 gene copy-number effects.
B) The plasmids coding for various SEC14 proteins were re-transformed into a fresh wild type yeast strain and serial dilutions of the cultures spotted on either 150 μM of NGx04 or DMSO control, incubated for 3 days at 30°C and scored for growth. C) The strains were grown for 24 h in the presence of increasing concentrations of NGx04 and growth measured by turbidity (OD600). Duplicate values were determined and the 18 h time point was used for logistic regression.

MTS cytotoxicity assay = type: cell-based; details: human, HepG2 cells, triplicates, logistic regression
Text: (§1) One key requirement of antifungal medicines is selective inhibition of the pathogen over the mammalian host. To explore potential undesired activity of NGx04 against mammalian cells we used the Cancer Cell Line Encyclopedia CCLE, a collection of 512 human cancer cell lines (broadinstitute.org/ccle). Dose-response curves for NGx04 were generated in a proliferation assay and IC50 values determined. […] Since HepG2 cells are known to be a suitable tool to profile toxicity of compounds [40], we used this liver-derived line to assess cytotoxicity of NGx04. […] 16 of 21 amino acid residues within a 5 Å radius from any atom of the docked Ngx04 ligand were not conserved between the two proteins. Critical differences in the active site of the human protein are the residues F178, C128, I151 and L186 (corresponding to S201, Y151, T175 and M209 in yeast) which form a smaller and more hydrophobic pocket compared to the yeast protein (Fig 4C). […]
(§2) Fig 4 Fungal selectivity. […] A) Dose-response curves for NGx04 were generated in growth inhibition assay and IC50 values determined in duplicates. […]
(§3) Profiling across the Cancer Cell Line Encyclopedia was performed as described previously. MTS toxicity was determined using a CellTiter 96 AQueous One Solution Cell Proliferation Assay kit from Peomega.

S. cerevisiae = assay: High-throughput screen of compound archive against S. cerevisiae; type: cell-based; details: Saccharomyces cerevisiae; validated hit of high-throughput screen
C. neoformans ATCC 90113 = assay: C. neoformans growth inhibition (CLSI M27-A3 broth microdilution); type: cell-based; details: 72 h, triplicate values printed singly; for MIC: Cryptococcus neoformans, ATCC90113, 72 h
Text: (§4) Sec14p is reported to be essential for virulence as well as for growth in C. neoformans. The S. cerevisiae and C. neoformans proteins show 53% similarity by pair-wise alignment with higher conservation of the residues in the lipid-binding pocket (S2 Fig). Furthermore, three of the four sites identified to be critical for NGx04 sensitivity, are conserved (S2 Fig). In combination with the current high unmet medical need related to Cryptococcus infections we prioritized testing of NGx04 and 18 related ergoline scaffold analogs against this pathogen. Two clinical isolates of C. neoformans (ATCC 36556 and ATCC 90113) were plated in triplicates on increasing drug concentrations and MIC-2 (50% inhibition) and MIC-0 (no visible fungal growth) concentrations were scored after 72 hrs. (Fig 5).
(§5) C. neoformans strains ATCC 36556, a lung isolate, and ATCC 90113, a cerebrospinal fluid isolate, were purchased from ATCC, Manassas, VA (USA). BPY22 was obtained from.
(§6) Antifungal susceptibility testing was conducted according to the Clinical and Laboratory Standards Institute (CLSI) guidelines for broth microdilution assay M27-A3. Testing was performed in RPMI-1640 (HyClone) with 2.05 mM glutamine, phenol red, without bicarbonate and buffered with 0.165 mol/l 3-(N-morpholino) propanesulfonic acid (MOPS). The medium was adjusted to pH 7.0 and sterilized with a 0.2 μm filter. Two endpoints were recorded: MIC-0 (complete inhibition with no visible fungal growth) and MIC-2 (prominent inhibition corresponding to >50% growth reduction).

C. neoformans ATCC 36556 = assay: as above; type: cell-based; details: for MIC: Cryptococcus neoformans, ATCC36556, 72 h
Text: as §4, §5, §6

[3] = system: 512 human cancer cell lines; assay: Cancer Cell Line Encyclopedia proliferation assay; type: cell-based
Text: as §1, §2, §3

[4] = Artificial membrane permeability assay; type: in vitro ADME; details: PAMPA, to assess blood brain barrier penetration
Experimental: Invasion of the central nervous system by C. neoformans is a prerequisite for fungal meningitis. We thus performed artificial membrane permeability assays in order to assess the potential of the cryptococcal active compounds to penetrate the blood brain barrier (S7 Fig). […] High permeability of ergolines is expected, as members of the ergoline class are used as psychedelic narcotics since their discovery.
Metabolic stability was determined as described previously on a fully automated platform, the artificial membrane permeability assays was performed as described previously
Supplementary file pgen.1006374.s007.eps: S7 Fig Physicochemical properties of ergolines. Rat liver microsome and artificial membrane permeability assay. NGx04 and close analogues were tested for metabolic stability (CYP MetCL) and artificial membrane permeability (logPAMPA) in duplicates. Value pairs are color coded and binning is indicated. (EPS) Click here for additional data file.

[5] = 50% inhibition, read-out: ATCC90113 MIC-2
[6] = no visible fungal growth, read-out: ATCC90113 MIC-0
[7] = 50% inhibition, 72 h, triplicate values printed singly, read-out: ATCC36556 MIC-2
[8] = no visible fungal growth, 72 h, triplicate values printed singly, read-out: ATCC36556 MIC-0

In the case of COC(=O)C1CC2c3ccc([N+](=O)[O-])c4c3C(CC2N(C)C1)CN4C(=O)OCC(Cl)(Cl)Cl (stereo not drawn) [NGx04], the pIC50 ([1]; read-out: IC50, strain KES1/kes1) was 4.72, the pIC50 ([1]; read-out: IC50, strain SEC14/sec14) was 5.20 and the pIC50 ([1]; read-out: IC50, strain ho/ho) was 4.93. For the same molecule, the pIC50 ([1]; read-out: IC50, strain itr1/itr1) was 5.28, the pIC50 ([1]; read-out: IC50, strain spo14/spo14) was 5.36 and the pIC50 ([1]; read-out: IC50, strain srf1/srf1) was 5.42. The “effect of excess PI or PC on growth inhibition” value (S. cerevisiae BY4741) was “alleviate NGx04-mediated growth inhibition”, the pIC50 ([2]; read-out: IC50, SEC14 S173A) was 3.50 and the pIC50 ([2]; read-out: IC50, SEC14 V154I) was 3.65. For the same molecule, the pIC50 ([2]; read-out: IC50, SEC14 WT plasmid) was 4.39, the pIC50 (MTS cytotoxicity assay) was 3.80 and the pIC50 (S. cerevisiae) was over 4.70. For the same molecule, the MIC (C. neoformans ATCC 90113; [5]) was 25 µg/mL, the MIC (C. neoformans ATCC 90113; [6]) was over 50 µg/mL and the MIC (C. neoformans ATCC 36556; [7]) was 25 µg/mL. For the same molecule, the MIC (C. neoformans ATCC 36556; [8]) was 50 µg/mL, the “C. neoformans growth inhibition (in words)” value (C. neoformans ATCC 36556; clinical isolates ATCC 36556 and ATCC 90113, tested dose range) was “inhibit C. neoformans growth” and the “ATCC36556 MIC-0” value (C. neoformans ATCC 36556; no visible fungal growth, 72 h, triplicate values printed singly) was over 50 µg/mL. The cell lines sensitive ([3]; share of cell lines, sensitive defined by Amax <50% and IC50 <30 μM) was “one fourth” and the “cell lines not notably affected / not significantly inhibited” value ([3]; share of the tested CCLE cell lines) was 76%.

With CC(C)N1CC(C(=O)O)CC2c3cccc4c3C(CC21)CN4C(=O)OC(C)(C)C (stereo not drawn) [NGx13] the artificial membrane permeability [4] was “exception”, the “ATCC90113 MIC-2” value (C. neoformans ATCC 90113; 50% inhibition) was 50 µg/mL and the MIC (C. neoformans ATCC 90113; [5]) was over 50 µg/mL. The MIC (C. neoformans ATCC 90113; [6]) was over 50 µg/mL, the “ATCC36556 MIC-2” value (C. neoformans ATCC 36556; 50% inhibition, 72 h, triplicate values printed singly) was 13 µg/mL and the MIC (C. neoformans ATCC 36556; [7]) was 25 µg/mL. For the same molecule, the MIC (C. neoformans ATCC 36556; [8]) was over 50 µg/mL.
